Laboratory results reported in patent publication US20240368560A1, “METHODS OF PRODUCING THREE-DIMENSIONAL CELLULAR TISSUES” (TOPPAN HOLDINGS INC., priority 2022, published 2024).

What was measured:
Type in all cases: cell-based, human
[1] = test system: three-dimensional cellular tissue (NHDF, HUVEC, HCT15/β2m cells); assay: Formation of collagen, PSR staining, timing of ascorbic acid addition (Experimental Example 2); conditions: day 7 of culture
Description: Preparation of stromal cells, seeding of cancer cells and lamination of stromal cells were performed in the same manner as in Experimental Example 1 except that 2.0×10^6 cells of human neonatal dermal fibroblasts NHDF were seeded, as NHDF, in a square dish (product number “166508”, Nunc) containing 90 mL of general-purpose medium or general-purpose medium containing 0.1 mM ascorbic acid, and cultured in a CO2 incubator (37° C., 5% CO2) for 24 hours.
Then, the medium inside and outside the cell culture insert was removed, and 2.3 mL of general-purpose medium or general-purpose medium containing 0.1 mM ascorbic acid was added, and the cells were cultured in a CO2 incubator (37° C., 5% CO2) for 3 days.
Subsequently, the medium inside and outside the culture insert was removed, and 2.3 mL of general-purpose medium or general-purpose medium containing 0.1 mM ascorbic acid was added, and the cells were cultured in a CO2 incubator (37° C., 5% CO2) for 3 days.
On day 7 of the culture, the three-dimensional cellular tissue was washed twice with PBS, and 300 μL of 10% formalin buffer solution (product number “062-01661”, FUJIFILM Wako Pure Chemical Corporation) was added to the cell culture insert, which was then allowed to stand for 15 minutes or more and washed three times with PBS to fix the three-dimensional cellular tissue. […]

[2] = test system: three-dimensional cellular tissue (NHDF, HUVEC, HCT15/β2m cells); assay: Formation of collagen, PSR staining (Experimental Example 1); conditions: ascorbic acid 0.1 mM, alone or with TGF-β 1 ng/mL
Description: The medium inside and outside the above cell culture insert was removed, and 2 mL of general-purpose medium was added, using magnesium ascorbate phosphate (product number “013-12061”, FUJIFILM Wako Pure Chemical Corporation) and TGF-β (product number “209-16544”, FUJIFILM Wako Pure Chemical Corporation), with the ascorbic acid concentration being 0 mM, […], and the cells were cultured in a CO2 incubator (37° C., 5% CO2) for 3 days. Then, the medium inside and outside the culture insert was removed, and 2.3 mL of general-purpose medium was added with the ascorbic acid concentration being 0 mM, […], and the cells were cultured in a CO2 incubator (37° C., 5% CO2) for 3 days. On day 4 and day 7 of the culture, the obtained three-dimensional cellular tissue was washed twice with PBS, and […] of 10% formalin buffer solution (product number “062-01661”, FUJIFILM Wako Pure Chemical Corporation) was added to the cell culture insert, which was then allowed to stand for 15 minutes or more and washed three times with PBS to fix the three-dimensional cellular tissue. Then, the three-dimensional cellular tissue was removed from the cell culture insert, embedded in paraffin, and cut along a line passing through the center of gravity in a direction perpendicular to the top of the three-dimensional cellular tissue (top of the cell culture insert) to prepare a […] thin slice. […]

[3] = test system: three-dimensional cellular tissue (NHDF, HUVEC, HCT15/β2m cells); assay: Bright-field observation of three-dimensional cellular tissue formation (Experimental Example 1); conditions: day 7 of culture; ascorbic acid 0, 0.05 or 0.1 mM; TGF-β 0, 0.1, 1, 5 or 10 ng/mL
Description: 1.0×10^6 cells of human neonatal dermal fibroblasts NHDF (product number “CC-2509”, Lonza) and 1.5×10^4 cells of human umbilical vein endothelial cells HUVEC (product number “C2517A”, Lonza) were suspended in a 50 mM tris-HCl buffer solution (pH 7.4) containing 0.1 mg/mL heparin (product number “H3149-100KU”, Sigma) and 0.1 mg/mL collagen (product number “ASC-1-100-100”, Sigma).
Then, the cell suspension was centrifuged at room temperature at 1,000×g (gravitational acceleration) for 2 minutes, and, after removing the supernatant, resuspended in 300 μL of general-purpose medium. Then, the obtained cell suspension was seeded inside a 24-well cell culture insert (product number “3470”, Corning Incorporated) coated with 0.1 mg/mL fibronectin in advance, with 1 mL of general-purpose medium added to the outside.
Then, the cell culture insert was centrifuged at room temperature at 400×g for 2 minutes, and then allowed to stand in a CO2 incubator (37° C., 5% CO2) for 2 hours. Then, 1 mL of general-purpose medium was added to the outside the cell culture insert, and the cells were cultured in a CO2 incubator (37° C., 5% CO2) for 24 hours (the time at which this culture was started is referred to as the culture start time).
The medium outside the cell culture insert was removed, and 1 mL of general-purpose medium was added. […]

Molecule	formation of collagen (PSR staining) ([1]; 0.1 mM ascorbic acid added after formation of the three-dimensional cellular tissue)	formation of collagen (PSR staining) ([1]; 0.1 mM ascorbic acid added to NHDF in advance (24 hours before tissue formation))	formation of collagen (PSR staining, PSR ratio) [2]	formation of three-dimensional cellular tissue (microscopic observation) [3]
O=C1O[C@H]([C@@H](O)CO)C(O)=C1O [ascorbic acid]	collagen was found to be formed	no change in formation of collagen	fiber-like collagen was formed	a three-dimensional cellular tissue was formed
TGF-β	–	–	–	the cellular tissue shrunk and became detached from the cell culture insert, and no three-dimensional cellular tissue was formed
